Reference: ChEMBL document CHEMBL1133346, “The synthesis and evaluation of 3-substituted-7-(alkylidene)cephalosporin sulfones as beta-lactamase inhibitors” (Bioorg Med Chem Lett, 2000)

Tests used:
Beta-lactamase class C [1] = target: T1, Beta-lactamase class C (Enterobacter cloacae, UniProt Q59401); test: Inhibition of class C beta-lactamase derived from Enterobacter cloacae P99
Beta-lactamase = Beta-lactamase (Staphylococcus aureus, UniProt P00807); test: Inhibition of class A beta-lactamase derived from Staphylococcus aureus strain PC1
Beta-lactamase TEM = Beta-lactamase TEM (Enterobacter cloacae, UniProt Q6W9J1); test: Inhibition of class A TEM-1 beta-lactamase derived from Enterobacter cloacae
Beta-lactamase class C [2] = target: T1, Beta-lactamase class C; test: Inhibition of GC1 extended spectrum class C beta-lactamase; set-up: species or system Enterobacter cloacae GC1
Beta-lactamase class C [3] = target: T1, Beta-lactamase class C; test: The compound was evaluated for inhibition against the GC1 extended spectrum Class C beta-lactamase
Beta-lactamase class C [4] = target: T1, Beta-lactamase class C; test: The compound was evaluated for inhibition against Class C beta-lactamase derived from Enterobacter cloacae P99

Beta-lactamase, sequence (P00807 whole entry): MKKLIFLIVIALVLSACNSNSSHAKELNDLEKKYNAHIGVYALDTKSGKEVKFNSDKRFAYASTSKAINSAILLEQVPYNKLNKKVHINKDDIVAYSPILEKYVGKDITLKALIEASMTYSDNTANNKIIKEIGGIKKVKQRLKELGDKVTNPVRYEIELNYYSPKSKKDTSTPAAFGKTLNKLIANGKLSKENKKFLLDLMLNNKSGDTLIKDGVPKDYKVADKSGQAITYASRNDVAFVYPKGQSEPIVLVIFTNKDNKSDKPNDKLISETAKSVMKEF
T1 sequence (Q59401 whole entry): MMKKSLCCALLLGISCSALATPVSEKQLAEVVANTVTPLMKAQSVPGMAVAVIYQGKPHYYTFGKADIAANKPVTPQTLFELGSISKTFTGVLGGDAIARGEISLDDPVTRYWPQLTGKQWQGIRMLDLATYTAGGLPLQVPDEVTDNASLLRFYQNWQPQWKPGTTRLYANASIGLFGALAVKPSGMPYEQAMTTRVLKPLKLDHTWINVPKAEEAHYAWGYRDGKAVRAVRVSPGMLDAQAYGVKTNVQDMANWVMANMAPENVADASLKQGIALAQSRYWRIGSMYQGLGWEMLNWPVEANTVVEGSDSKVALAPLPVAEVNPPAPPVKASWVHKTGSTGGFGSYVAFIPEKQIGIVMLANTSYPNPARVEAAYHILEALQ
Beta-lactamase TEM, sequence (Q6W9J1 whole entry): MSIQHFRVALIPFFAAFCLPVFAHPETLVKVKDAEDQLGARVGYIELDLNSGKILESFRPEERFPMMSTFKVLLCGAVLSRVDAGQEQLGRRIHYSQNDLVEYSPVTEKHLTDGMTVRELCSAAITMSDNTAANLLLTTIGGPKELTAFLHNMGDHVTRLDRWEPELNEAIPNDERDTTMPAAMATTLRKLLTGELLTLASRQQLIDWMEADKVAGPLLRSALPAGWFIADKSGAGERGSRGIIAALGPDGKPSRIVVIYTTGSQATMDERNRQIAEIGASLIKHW

SMILES | IC50 (Beta-lactamase class C [1]) | IC50 (Beta-lactamase) | IC50 (Beta-lactamase TEM) | IC50 (Beta-lactamase class C [2]) | IC50 (Beta-lactamase class C [3]) | IC50 (Beta-lactamase class C [4])
C=C/C=C/C1=C(C(=O)O)N2C(=O)/C(=C/c3ccccn3)C2S(=O)(=O)C1 (stereo unspecified) | 24000 nM | 75 µM | 68000 nM |  |  | 
COC(=O)/C(Cl)=C/C1=C(C(=O)O)N2C(=O)/C(=C/c3ccccn3)C2S(=O)(=O)C1 (stereo unspecified) | 900 nM | 1.4 µM | 70 nM | 180 nM |  | 
C=CC(=O)OCC1=C(C(=O)O)N2C(=O)/C(=C/c3ccccn3)C2S(=O)(=O)C1 (stereo unspecified) | 100 nM | 110 µM |  | 900 nM |  | 
O=C(Cc1ccc(O)c(O)c1)OCC1=C(C(=O)O)N2C(=O)/C(=C/c3ccccn3)C2S(=O)(=O)C1 (stereo unspecified) | 3600 nM | 67 µM | 17400 nM |  |  | 
C=C1C(/C=C/C(=O)O)=C(C(=O)O)N2C(=O)/C(=C/c3ccccn3)C2S1(=O)=O (stereo unspecified) | 6600 nM |  | 2500 nM |  |  | 
COC(=O)/C=C/C1=C(C(=O)O)N2C(=O)/C(=C/c3ccccn3)C2S(=O)(=O)C1 (stereo unspecified) | 200 nM | 0.3 µM | 20 nM | 300 nM |  | 
N#CCC1=C(C(=O)O)N2C(=O)/C(=C/c3ccccn3)C2S(=O)(=O)C1 (stereo unspecified) | 900 nM | 8.9 µM | 5600 nM |  |  | 
CCOC(=O)CNC(=O)OCC1=C(C(=O)O)N2C(=O)/C(=C/c3ccccn3)C2S(=O)(=O)C1 (stereo unspecified) | 400 nM | 33.4 µM | 260000 nM | 45000 nM |  | 
O=C(O)/C=C/C1=C(C(=O)O)N2C(=O)/C(=C/c3ccccn3)C2S(=O)(=O)C1 (stereo unspecified) | 310 nM | 31 µM | 2500 nM |  |  | 
CCC(=O)OCC1=C(C(=O)O)N2C(=O)/C(=C/c3ccccn3)C2S(=O)(=O)C1 (stereo unspecified) |  | 15.4 µM | 311000 nM |  |  | 
CC(C)(C)OC(=O)/C=C/C1=C(C(=O)O)N2C(=O)/C(=C/c3ccccn3)C2S(=O)(=O)C1 (stereo unspecified) | 1480 nM | 240 µM |  |  |  | 
O=C(O)C1=C(/C=C/[N+](=O)[O-])CS(=O)(=O)C2/C(=C\c3ccccn3)C(=O)N12 (stereo unspecified) | 20 nM | 0.2 µM | 70 nM | 100 nM |  | 
NC(=O)/C=C/C1=C(C(=O)O)N2C(=O)/C(=C/c3ccccn3)C2S(=O)(=O)C1 (stereo unspecified) | 26 nM | 0.1 µM | 90 nM | 10 nM |  | 
NC(=O)/C=C/C1=C(C(=O)O)N2C(=O)/C(=C/c3cccs3)C2S(=O)(=O)C1 (stereo unspecified) | 290 nM | 154 µM | 900 nM |  |  | 
COCC1=C(C(=O)O)N2C(=O)/C(=C/c3ccccn3)C2S(=O)(=O)C1 (stereo unspecified) | 700 nM | 28 µM | 700 nM | 1200 nM |  | 
C=C1C(/C=C/C(=O)OC)=C(C(=O)O)N2C(=O)/C(=C/c3ccccn3)C2S1(=O)=O (stereo unspecified) | 30 nM | 6 µM | 2900 nM | 60 nM |  | 
NC(=O)OCC1=C(C(=O)O)N2C(=O)/C(=C/c3ccccn3)C2S(=O)(=O)C1 (stereo unspecified) | 2300 nM | 7.9 µM | 10500 nM | 260 nM |  | 
C=C1C(/C=C/C(=O)OC(C)(C)C)=C(C(=O)O)N2C(=O)/C(=C/c3ccccn3)C2S1(=O)=O (stereo unspecified) | 440000 nM |  |  | 150000 nM |  | 
O=C(O)C1=C(/C=C/c2ccccn2)CS(=O)(=O)[C@@H]2/C(=C\c3ccccn3)C(=O)N12 | 180 nM | 4.3 µM | 200 nM |  |  | 
N#CC1=C(C(=O)O)N2C(=O)/C(=C/c3ccccn3)C2S(=O)(=O)C1 (stereo unspecified) | 29 nM | 280 µM | 2340 nM |  |  | 
N#C/C=C/C1=C(C(=O)O)N2C(=O)/C(=C/c3ccccn3)C2S(=O)(=O)C1 (stereo unspecified) |  | 0.72 µM | 14 nM |  | 12 nM | 10 nM
O=C(COc1ccccc1)OCC1=C(C(=O)O)N2C(=O)/C(=C/c3ccccn3)C2S(=O)(=O)C1 (stereo unspecified) | 100 nM | 100 µM | 800 nM | 130 nM |  | 
O=C(O)C1=C(/C=C/c2cccc[n+]2[O-])CS(=O)(=O)[C@@H]2/C(=C\c3ccccn3)C(=O)N12 | 600 nM | 8.6 µM | 6 nM | 100 nM |  | 
